This is an account of results in patent US11389456B2, “Compounds and methods for treating oxalate-related diseases” (OxaluRx, Inc., priority 2018, dated 2022).

Data set [1] deals with recombinant full-length human hydroxyacid oxidase 1 (HAO1), the equivalent of hGOX (Homo sapiens (Human), UniProt Q9UJM8). Briefly: In-vitro human glycolate oxidase (hGOX) assay (Amplex red/HRP fluorescence). Format: biochemical.
Description: Biological Activity Assay: In-Vitro Human Glycolate Oxidase (hGOX) Assay
The in-vitro glycolate oxidase assay was performed using recombinant full-length human hydroxyacid oxidase 1 (HAO1), the equivalent of hGOX. […] Purified HAO1 was dissolved in assay buffer consisting of 10 mM NaCl, 110 mM KCl, 2 mM MgCl2, 50 mM HEPES (pH 7.4) and 0.01% Triton™ X-100.
Data set [2] is described as follows: Solubility in aqueous solution (deionized, distilled water). Format: physicochemical. Particulars: kinetic from dmso stock, 1% DMSO, read-out: Aqueous Solubility H2O. The method in brief:
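DMSO stock (10 mM) diluted into 100 mM phosphate buffer pH 7.4, or into deionized distilled water for the aqueous assay, at 1% final DMSO and shaken 1 h at room temperature. After centrifugation, supernatants quantified by LC-MS/MS against a calibration curve with internal standard.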

Data set [3] can be described thus: Metabolic stability in human liver microsomal preparation. To be noted: pH 7.4, human liver microsomes, NADPH, 37° C. Format: in vitro ADME. An outline of the steps:
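Compound at 1.5 μM with 0.75 mg/mL human liver microsomes (concentrations before NADPH addition) in 0.1 M potassium phosphate, 1 mM EDTA, pH 7.4 was preincubated 5 min at 37 °C, then started with NADPH. Samples at 0, 5, 15, 30 and 45 min were quenched with acetonitrile/internal standard and analysed by LC/MS.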
Background: Liver microsomes are a subcellular fraction often used to study metabolism.

In data set [4] the test system is CD1 mice administered 1% ethylene glycol. Description: Mouse ethylene glycol model of hyperoxaluria, urinary oxalate. The class given is in vivo. Particulars: CD-1 mice, twice-daily oral gavage 50 mg/kg. Here is the method:
Mouse Models of Hyperoxaluria for Determining In Vivo Efficacy of hGOX Inhibitors
Male CD1 mice, 6-8 weeks of age (Charles River Labs, Wilmington, Mass.) were administered 1% ethylene glycol ad libitum their drinking water for 14 days. The mice were housed in individual cages, fed ad libitum and 24-h urine collections were initiated on days 1, 5, 9 and 14 using a 15-rack metabolic cage system equipped with a CCS2000 chiller system (Hatteras Instruments, Cary, N.C.) to maintain the samples at 4° C. during collection. Hydrochloric acid (100 μL of 6N) added to the collection vials to acidify the samples and prevent degradation of oxalate before evaluation.
Urine samples were maintained at 4° C. and urinary oxalate concentrations were determined within 24 hours of sample collection using a Trinity Biotech oxalate assay kit (Catalog #591-D). The assay was an enzymatic method based on the oxidation of oxalate by oxalate oxidase followed by measurement of hydrogen peroxide (H2O2) produced during the peroxidase-catalyzed reaction. Briefly, a 1-mL aliquot of each sample was diluted with an equal volume of assay diluent to bring the pH to between 5.0 and 7.0, then placed into purifier tubes (provided in the kit) and mixed for 5 min. The tubes were centrifuged for 5 min at 2000 rpm (1500×g) and the supernatants collected for the oxalate assay. The procedure was specific for oxalate with no special equipment and was easily adaptable for clinical automated analyzers. Each assay included a standard curve prepared with a standardized oxalate control sample (included in the kit) and internal assay control samples for both a normal (0.2-0.3 mmol/L) and elevated (0.86-1.21 mmol/L) level of oxalate.
To evaluate in vivo efficacy, mice were dosed by once-daily oral gavage of compound I-002 in an appropriate vehicle (e.g., phosphate-buffered saline, pH 7.4) at a dosage of 100 mg/kg. […]
The effect of example I-001 in the ethylene glycol model using CD-1 mice was evaluated by twice-daily, oral gavage dosing at 50 mg/kg for 6 days (days 5-11). […]

In brackets after ≈: the same amount, converted by molar mass.

Chain of recombinant full-length human hydroxyacid oxidase 1 (HAO1), the equivalent of hGOX (Q9UJM8 whole entry): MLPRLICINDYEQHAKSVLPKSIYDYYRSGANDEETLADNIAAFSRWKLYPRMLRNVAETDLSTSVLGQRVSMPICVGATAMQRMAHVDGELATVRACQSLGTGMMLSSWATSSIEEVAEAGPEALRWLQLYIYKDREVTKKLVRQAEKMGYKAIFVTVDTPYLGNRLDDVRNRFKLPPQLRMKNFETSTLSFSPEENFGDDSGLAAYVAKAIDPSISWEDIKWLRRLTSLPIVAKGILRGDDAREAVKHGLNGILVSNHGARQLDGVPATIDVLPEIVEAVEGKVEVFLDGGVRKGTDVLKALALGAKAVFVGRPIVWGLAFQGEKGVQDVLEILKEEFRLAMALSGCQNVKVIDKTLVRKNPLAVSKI

Usually IC50 stands for the concentration that inhibits the measured activity by half. The term solubility denotes the dissolved amount per volume that the medium holds. What is called CLint scaled is the capacity of the preparation to metabolise the compound, expressed as a volume cleared per time. A low value points to slow turnover. For the compound `O=C(O)c1nn[nH]c1Sc1ccc(Cl)cc1` [Example I-001, 5-((4-chlorophenyl)thio)-1H-1,2,3-triazole-4-carboxylic acid], in data set [1], the IC50 was 0.11 µM. In addition, the solubility at 1 h in data set [2] was 83.8 µM (≈ 21.4 µg/mL). The compound further displayed a CLint scaled at 1 μM in data set [3] of 1.19 mL/min/kg. Moreover, the half-life at 1 μM in data set [3] (0-45 min, read-out: Metabolic Stability t1/2) came to 24.3 h. The results for the “decrease of total urinary oxalate values (μmole/24 hr/mL)” value in data set [4] (24-hour urine collection after 3 days of drug treatment) and in data set [4] (24-hour urine collection after 6 days of drug treatment) were 24% and 32%, respectively.
